The values below come from article PMC11272584 (Nature Metabolism, 2024).

Read-outs that look alike come from different tables or passages of the source.

In experiment [1] the target is T1, GLP-1R (Homo sapiens, UniProt P43220).
T1 construct: expressed in transfected cells; host or cells: parental HEK293A cells and β-arrestin 1/2 KO HEK293A cells
Conditions: cited from earlier work. The source says:
(§1) Development of similar Gs biased analogues for the GIPR has also been proposed. Although it is not possible to genetically instrument the dual agonistic effects, our results and those of others[33] highlight that decreased recruitment of β-arrestins might benefit the GLP-1R system[36],[37] but not for the GIPR regarding its role in glycaemic control. Ye ...

Experiment [2] deals with GIPR. The following applies: cited from earlier work.
Source text: as §1

For experiment [3], the system named is WT male mice. The experiment can be described thus: IPGTT in WT male mice. Type of experiment: in vivo, mouse. On the set-up: Mean difference in glucose (WT + Veh. vs. WT + GLP-1): unit not given here. Conditions: for Mean difference in glucose (WT + Veh. vs. WT + GLP-1): injected 15 min before glucose, n = 14 veh., 13. From the text: (§2) We therefore explored the functional relationship between β-arrestin recruitment and GIP-stimulated glucose regulation by conducting pharmacological interventions in a murine genetic global germline β-arrestin 2 (Arrb2) knockout (KO) model.
(§3) Studies were approved by and performed according to the guidelines of the Institutional Animal Care and Use Committee of Duke University. Male Arrb2 KO mice (Arrb2^−/−) ~12–15 weeks of age were generously provided by Drs Howard Rockman and Robert Lefkowitz at Duke University[70]. The mice were kept in standard housing conditions with a temperature of 20–26 °C and a 12-h dark/light cycle to ensure the physiological and psychological wellbeing of the mice. Mice were fed research diets 5053. We restrictedly used male mice because of the potential impact of the sexual dimorphism, that is, the oestrus cycle in female mice on cardiometabolic traits, resulting in unwanted variability and to ensure comparability to existing research predominantly using male mice[71]. The mice were subjected to an IPGTT. […] Data collection and analysis were not randomized or blind to the conditions of the experiments. The statistical analysis was performed in GraphPad Prism.

The subject of experiment [4] is β cell-specific β-arrestin 2 KO female mice. Conditions: cited from earlier work. From the text: In contrast, GIP-potentiated insulin secretion relied on β-a ...
Experiment [5] concerns male Arrb2 KO mice. The experiment can be described thus: IPGTT in male Arrb2 KO mice. On the set-up: Mean difference in glucose (Arrb2-/- + Veh. vs. Arrb2-/- + GLP-1): unit not given here. The following applies: for Mean difference in glucose (Arrb2-/- + Veh. vs. Arrb2-/- + GLP-1): injected 15 min before glucose, n = 13 veh., 10. It counts as in vivo, mouse.
Source text: as §2, §3

The test system of experiment [6] is SNAP-GIPR P195R. The following applies: HEK293A.
Experiment [7] concerns GIPR variants (groups).
Protocol: This prompted us to further assess the role of β-arrestin for GIPR signalling by investigating the endosomal signalling in representative GIPR variants from each of the six in vitro-based groups.
At 48 h post-transfection, cells were washed with HBSS and subsequently maintained in 80 µl HBSS. […] Light emission at 515/20 nm (acceptor; rGFP) and 400/70 nm (donor; Rluc8) was measured using a Tecan Spark multimode microplate reader (Männedorf).
Experiment [8] concerns SNAP-WT GIPR. The following applies: HEK293A.
For experiment [9], the system named is SNAP-GIPR T116R. The following applies: HEK293A.
Experiment [10] has as its system GIPR variants (groups). The source holds these as a separate data set.
Protocol: Binding experiments were performed simultaneously with the same transiently transfected HEK293 cells used for the cAMP experiments to enable the correlation of receptor expression with signalling between assays. In brief, 1 day before the assay, the transfected cells were seeded in a clear 96-well plate. […] On the assay day, the cells were washed twice with 4 °C binding buffer (50 mM HEPES buffer (pH 7.2), 1 mM CaCl2, 5 mM MgCl2 and 0.5% (wt/vol) bovine serum albumin) and incubated for 15 minutes at 4 °C. […] After incubation, the cells were washed in ice-cold binding buffer and lysed with 200 mmol l^−1 NaOH with 1% sodium dodecyl sulphate for 30 min. The gamma radiation was measured with a 2470 Wizard2 Automatic Gamma Counter.
To obtain Emax, EC50, Bmax, Kd and IC50 values, we analysed the data with the non-linear regression curve fitting program GraphPad Prism Software 9 (GraphPad).
The Bmax was calculated according to the following equation[51]: Bmax=B0×IC50/[L] in which B0 represents the total specific binding and [L] is the ligand concentration. The equilibrium dissociation constant (Kd) was obtained with the equation[51]: Kd=IC50−[L]
In experiment [11] the test system is GIPR variants (groups). Description: β-arrestin 2 recruitment (BRET).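 Also: BRET readout of β-arrestin 2 recruitment in transiently transfected HEK293 cells expressing WT GIPR or a GIPR variant plus GPCR kinase 2, Rluc8 donor and citrine acceptor.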 A general note: Arrestin recruitment assays detect the binding of arrestin to an activated receptor.
Protocol: Both cell lines were cultured at 5% CO2 at 37 °C in Roswell Park Memorial Institute GlutaMAX-I supplemented with 10% fetal bovine serum, 180 units ml^−1 penicillin, and 45 g ml^−1 streptomycin. […] The polyethyleneimine (PEI) transfection method was used for the β-arrestin 2 recruitment assays[50], endosomal signalling and basal receptor localization assays, while the lipofectamine transfection method was used for the internalization assay.
(§4) Measurement of β-arrestin 2 recruitment was performed with a BRET assay. Two days before the assay, the HEK293 cells were transiently transfected with either WT GIPR or the GIPR variants together with the donor Rluc8-Arrestin-3-Sp1, the acceptor mem-linker-citrine-SH3 and the GPCR kinase 2 to facilitate β-arrestin 2 recruitment. On assay day, the cells were washed with PBS and resuspended in PBS supplemented with 5 mmol l^−1 glucose. Subsequently, 85 µl of the cell suspension was transferred to a white 96-well plate and 10 µl of 50 µM coelenterazine-h was added.
Experiment [12] relates to GIPR W90Lfs*17. The experiment can be described thus: cAMP accumulation. It counts as cell-based, human. Conditions: W90Lfs*; HEK293; GIP(1–42) 1 pM–100 nM, 30 min 37 °C; mean of n = 5. For orientation: Cyclic AMP is a second messenger, typically raised through Gs and lowered through Gi signalling.
Protocol: (§5) HEK293 (CRL-1573, American Type Culture Collection) and β-arrestin 1/2 knockout cells, generated from HEK293A[48], were used for cAMP measurement, homologues competition binding and β-arrestin 2 recruitment. For the internalization assay, endosomal signalling and basal receptor localization experiments, HEK293A (R70507, Thermo Fisher) cells were used. Both cell lines were cultured at 5% CO2 at 37 °C in Roswell Park Memorial Institute GlutaMAX-I supplemented with 10% fetal bovine serum, 180 units ml^−1 penicillin, and 45 g ml^−1 streptomycin. For the cAMP and binding experiments, cells were transfected with the calcium phosphate precipitation method[49]. The polyethyleneimine (PEI) transfection method was used for the β-arrestin 2 recruitment assays[50], endosomal signalling and basal receptor localization assays, while the lipofectamine transfection method was used for the internalization assay.
cAMP production was measured with the DiscoverX Hithunter cAMP assay according to the manufacturer’s protocol (DiscoverX). […] On the day of the assay, the cells were washed twice with HEPES-buffered saline (HBS) and incubated with HBS and 1 mM 3-isobutyl-1-methylxanthine for 30 min at 37 °C. […] After a 3-h incubation on a shaking table in the dark, the cAMP accumulation was measured based on luminescence with a Perkin Elmer EnVision 2104 Multilabel Microplate Reader. […]
Experiment [13] relates to WT GIPR. The following applies: cited from earlier work.
The test system of experiment [14] is SNAP-GIPR A150T. The following applies: HEK293A.
For experiment [15], the system named is GIPR variants (groups). The source holds these as a separate data set.
Experiment [16] has as its system GIPR variants (groups). The experiment can be described thus: cAMP accumulation. Type of experiment: cell-based, human.
Protocol: as §5
cAMP production was measured with the DiscoverX Hithunter cAMP assay according to the manufacturer’s protocol (DiscoverX). […] On the day of the assay, the cells were washed twice with HEPES-buffered saline (HBS) and incubated with HBS and 1 mM 3-isobutyl-1-methylxanthine for 30 min at 37 °C. […] After the incubation, the assay medium was removed from the plate and the cells were washed with 30 µl PBS and treated with 40 µl enzyme donor–lysis buffer–chemiluminescent reagents and 10 µl cAMP antibodies for 60 min before 40 µl enzyme acceptor solution added. After a 3-h incubation on a shaking table in the dark, the cAMP accumulation was measured based on luminescence with a Perkin Elmer EnVision 2104 Multilabel Microplate Reader.
For cAMP accumulation, the data were fitted as a sigmoidal curve with a Hill slope of 1; for homologous competition binding, the data were fitted as a sigmoidal curve with a Hill slope of −1.
For experiment [17], the system named is SNAP-GIPR A207V. Conditions: HEK293A.
Experiment [18] has as its system SNAP-GIPR Y73H. The following applies: HEK293A.
Experiment [19] relates to SNAP-GIPR M67R. The following applies: HEK293A.
Experiment [20] relates to GIPR W90Lfs*17. The following applies: GIPR W90Lfs* (ECD), mean, n = 5, duplicate.
Protocol: HEK293 (CRL-1573, American Type Culture Collection) and β-arrestin 1/2 knockout cells, generated from HEK293A[48], were used for cAMP measurement, homologues competition binding and β-arrestin 2 recruitment. […] Both cell lines were cultured at 5% CO2 at 37 °C in Roswell Park Memorial Institute GlutaMAX-I supplemented with 10% fetal bovine serum, 180 units ml^−1 penicillin, and 45 g ml^−1 streptomycin. […] The polyethyleneimine (PEI) transfection method was used for the β-arrestin 2 recruitment assays[50], endosomal signalling and basal receptor localization assays, while the lipofectamine transfection method was used for the internalization assay.
as §4
Experiment [21] concerns SNAP-GIPR A185V. The following applies: HEK293A.
For experiment [22], the system named is SNAP-GIPR V99I. The following applies: HEK293A.
Where [23] appears, read: M67R, Y73H, V99I, T116R, A150T, A185V, P195R and A207V.
Setting [24] is: R12Q, L13F, R38L, A294V, I299V, E354Q, S415I, E418K, G449A and E463Q.
Setting [25] is: T25R, R43G, R164Q, H166Y, I221M and K397N.

T1 sequence (P43220 24-463, species assumed): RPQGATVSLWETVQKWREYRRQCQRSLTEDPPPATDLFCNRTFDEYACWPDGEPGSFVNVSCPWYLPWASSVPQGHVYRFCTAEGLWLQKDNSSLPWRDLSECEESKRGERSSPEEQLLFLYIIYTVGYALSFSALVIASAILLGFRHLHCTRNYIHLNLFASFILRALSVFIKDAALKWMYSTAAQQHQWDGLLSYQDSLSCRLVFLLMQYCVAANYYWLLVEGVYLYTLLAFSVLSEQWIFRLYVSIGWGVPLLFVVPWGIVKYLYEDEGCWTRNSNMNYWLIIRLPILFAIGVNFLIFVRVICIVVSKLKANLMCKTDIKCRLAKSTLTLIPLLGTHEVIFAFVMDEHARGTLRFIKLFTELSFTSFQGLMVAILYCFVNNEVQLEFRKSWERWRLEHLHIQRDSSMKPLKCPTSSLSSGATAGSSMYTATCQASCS

Consider tirzepatide: GIPR–GLP-1R co-agonist, for which, in experiment [1], the “cAMP pathway activation at the GLP-1R” value was “full activation of the cAMP pathway” and the “β-arrestin recruitment to the GLP-1R” value is reported as “less recruitment of β-arrestin”. In [2], the GIPR activation result is given as “activation of GIPR as native GIP”.
In the case of glucagon-like peptide-1 [GLP-1], the “Blood glucose lowering in IPGTT” value in [3] (WT male mice, 15 min before IPGTT) is “significantly lowered blood glucose levels”; in experiment [5] (male Arrb2 KO mice, 15 min before IPGTT), “able to lower blood glucose”. Moreover, the “Mean difference in glucose (WT + Veh. vs. WT + GLP-1)” value in experiment [3] (time 0, P = 0.031) is 19.9; in experiment [3] (time 15 minutes, P = 0.025), 40.3; in experiment [3] (time 30 minutes, P = 0.094), 28.3; in experiment [3] (time 60 minutes, P = 0.535), 8.13; in experiment [3] (time 120 minutes, P = 0.741), -1.82. The Acute glycaemic control entry in [4] is listed as “reduced acute GLP-1-mediated glycaemic control”. Moreover, the “Mean difference in glucose (Arrb2-/- + Veh. vs. Arrb2-/- + GLP-1)” value was 20.9 in experiment [5] (time 0, P = 0.011); 44.9 in experiment [5] (time 15 minutes, P = 0.008); 39.3 in experiment [5] (time 30 minutes, P = 0.0038); 8.48 in [5] (time 60 minutes, P = 0.216); 3.39 in experiment [5] (time 120 minutes, P = 0.796). Moreover, the Insulinotropic properties entry in [5] (β-arrestin KO mice) is given as “maintained its insulinotropic properties”.
On to “glucose-dependent insulinotropic polypeptide [GIP]”, for which the “Emax (Dose-response), internalization” value was 77 % of maximal SNAP-WT GIPR inte in experiment [6] (GIP 1 nM–1 µM, 37 °C, n = 4); 100 % of maximal SNAP-WT GIPR inte in experiment [8] (GIP 1 nM–1 µM, 37 °C, n = 4); 93 % of maximal SNAP-WT GIPR inte in experiment [9] (GIP 1 nM–1 µM, 37 °C, n = 4); 98 % of maximal SNAP-WT GIPR inte in experiment [14] (GIP 1 nM–1 µM, 37 °C, n = 4); 98 % of maximal SNAP-WT GIPR inte in experiment [17] (GIP 1 nM–1 µM, 37 °C, n = 4); 101 % of maximal SNAP-WT GIPR inte in [18] (GIP 1 nM–1 µM, 37 °C, n = 4). In addition, the “Emax (Dose-response), internalization” value in experiment [19] (GIP 1 nM–1 µM, 37 °C, n = 4) is reported as 98 % of maximal SNAP-WT GIPR inte; in experiment [21] (GIP 1 nM–1 µM, 37 °C, n = 4), 89 % of maximal SNAP-WT GIPR inte; in experiment [22] (GIP 1 nM–1 µM, 37 °C, n = 4), 92 % of maximal SNAP-WT GIPR inte. Further, the “LogEC50 (Dose-response), internalization” value in [6] (Hill slope 1.0, n = 4) is -7.2; in experiment [8] (Hill slope 1.0, n = 4), -7.5; in experiment [9] (Hill slope 1.0, n = 4) it was -7.6; in experiment [14] (Hill slope 1.0, n = 4), -7.6; in experiment [17] (Hill slope 1.0, n = 4), -7.6; in experiment [18] (Hill slope 1.0, n = 4) it was -7.4. Besides, the “LogEC50 (Dose-response), internalization” value is -6.6 in experiment [19] (Hill slope 1.0, n = 4); -7.5 in experiment [21] (Hill slope 1.0, n = 4); -6.9 in experiment [22] (Hill slope 1.0, n = 4). In addition, the Endosomal signalling result is “effectively recruited mGs to early endosomes” in [7] (variants that retained β-arrestin recruitment) and “minimal to no signalling from early endosomes” in experiment [7] (variants with diminished β-arrestin recruitment). Besides, the GIP binding entry in [10] (R190Q and E288G) is given as “maintained GIP binding”; in [10] (S64P, C84Pfs*70, R101H, Y258Sfs*50 and Q400Gfs*56), “undetectable GIP binding”. In experiment [10] (all 29 LoF variants), the “Binding capacity of GIP (Bmax)” value was “impaired”. Moreover, the β-arrestin recruitment result was “impaired β-arrestin recruitment” in experiment [11] (21 of the 29 variants with impaired cAMP production (LoFcAMP/LoFarr)); “impaired cAMP signalling and β-arrestin recruitment” in experiment [11] (R190Q and E288G). For the same substance, the β-arrestin recruitment class result was “WT-like” in [11] (setting [23]), “WT-like” in experiment [11] (setting [24]) and “low β-arrestin recruitment” in [11] (setting [25]). Moreover, the “β-arrestin 2 recruitment potency” value in experiment [11] (most of 47 variants, apart from a few lacking recruitment) was “no major differences in potency”. Also, the “cAMP (Emax)” value in experiment [12] is recorded as 11 % of WT GIPR activity. In addition, in [13], the β-arrestin isoform recruitment entry is recorded as “predominantly recruits β-arrestin 2 over β-arrestin 1”. Besides, the Level of internalization result in [15] (M67R, V99I and P195R) was “slightly diminished internalization”; in [15] (Y73H, T116R, A150T, A185V and A207V), “nearly identical levels of internalization as the WT GIPR”. For the same substance, the Internalization result in experiment [15] (R190Q and E288G (LoFcAMP/LoFarr)) is “did not internalize”; in experiment [15] (all eight LoFcAMP/WT-likearr variants), “preserved internalization capabilities”. In addition, the “cAMP signalling activity at 100 pM GIP” value in experiment [16] (29 partial and complete LoF variants, 100 pM GIP) was < 50 % of WT. The cAMP production class entry is “LoF (defined as <50% activity in either pathway)” in experiment [16] (setting [23]), “WT-like” in [16] (setting [24]) and “maintained cAMP production” in [16] (setting [25]). Moreover, the “cAMP production at higher GIP doses” value in [16] (R183Q, R190Q and R300W, higher GIP doses) was “cAMP production was restored”. For the same substance, in experiment [16] (R190Q and E288G), the cAMP signalling entry is recorded as “impaired cAMP signalling”. The “cAMP signalling at 100 pM GIP” value in experiment [16] (T116R, R183Q, R190Q and R300W, 100 pM GIP) was “no cAMP signalling”. Moreover, the “logEC50 (Arrestin)” value in [20] (Hill slope 1.0) is listed as -10.8. For the same substance, in [20] (normalized to WT GIPR), the “Arrestin (Emax)” value is 15.
